This is an account of results in US20070072883A1, “Fungicidal mixtures” (BASF Aktiengesellschaft, priority 2003, published 2007).

The subject of one assay is Cochliobolus miyabeanus. The assay can be described thus: Activity against brown spot of rice caused by Cochliobolus miyabeanus, protective application. In kind it is in vivo. Conditions: rice seedlings "Tai-Nong 67", six days after inoculation. How it is done: (§1) The active compounds, separately or jointly, were prepared as a stock solution comprising 0.25% by weight of active compound in acetone or DMSO. 1% by weight of the emulsifier Uniperol® EL (wetting agent having emulsifying and dispersant action based on ethoxylated alkylphenols) was added to this solution, and the mixture was diluted with water to the desired concentration.
Use Example 1—Activity Against Brown Spot of Rice Caused by Cochliobolus miyabeanus, Protective Application Leaves of potted rice seedlings of the cultivar “Tai-Nong 67” were sprayed to runoff point with an aqueous suspension of the concentration of active compound stated below. The next day, the plants were inoculated with an aqueous spore suspension of Cochliobolus miyabeanus. The test plants were then placed in climatized chambers at 22-24° C. and 95-99% relative atmospheric humidity for six days. The extent of the development of the infection on the leaves was then determined visually.
Evaluation was carried out by determining the percentage of infected leaf area. These percentages were converted into efficacies.
The efficacy (E) is calculated as follows using Abbot's formula: E=(1−α/β)·100 α corresponds to the fungicidal infection of the treated plants in % and β corresponds to the fungicidal infection of the untreated (control) plants in % An efficacy of 0 means that the infection level of the treated plants corresponds to that of the untreated control plants; an efficacy of 100 means that the treated plants are not infected.
The expected efficacies of mixtures of active compounds are determined using Colby's formula (R. S. Colby, Weeds, 15, 20-22, 1967) and compared with the observed efficacies.
Colby's formula: E=x+y−x·y/100 • E expected efficacy, expressed in % of the untreated control, when using the mixture of the active compounds A and B at the concentrations a and b • x efficacy, expressed in % of the untreated control, when using the active compound A at the concentration a y efficacy, expressed in % of the untreated control, when using the active compound B at the concentration b

The test system of the next assay is Corticium sasakii. The assay can be described thus: Activity against sheath blight on rice caused by Corticium sasakii. Format: in vivo. The conditions noted are these: rice plants "Tai-Nong 67", after 11 days. How it is done:
as §1
Use Example 2—Activity Against Sheath Blight on Rice Caused by Corticium sasakii
Pots with rice plants of the cultivar “Tai-Nong 67”, were sprayed to runoff point with an aqueous suspension having the concentration of active compounds stated below. The next day, oat grains infected with Corticium sasakii were placed into the pots (in each case 5 grains per pot). The plants were then placed in a chamber at 26° C. and maximum atmospheric humidity. After 11 days, the sheath blight on the untreated but infected control plants had developed to such an extent that the infection could be determined visually in %.
Evaluation was carried out analogously to Example 1.

The structures appear in SMILES notation.

`CC1CCN(c2c(-c3c(F)cc(F)cc3F)c(Cl)nc3ncnn23)CC1` [I, 5-chloro-7-(4-methylpiperidin-1-yl)-6-(2,4,6-trifluorophenyl)-[1,2,4]triazolo[1,5-a]pyrimidine]: the entries for the “Efficacy in % of the untreated control” value in the assay with Cochliobolus miyabeanus (4 ppm in the spray liquor) and with Corticium sasakii (4 ppm in the spray liquor) were 33% and 37%, respectively.
As to `N#Cc1c[nH]cc1-c1cccc2c1OC(F)(F)O2` [II (fludioxonil), 4-(2,2-difluorobenzo[1,3]dioxol-4-yl)-1H-pyrrole-3-carbonitrile], the “Efficacy in % of the untreated control” value in the assay with Cochliobolus miyabeanus (1 ppm in the spray liquor) was determined as 0%; in the assay with Cochliobolus miyabeanus (4 ppm in the spray liquor) it was 33%; in the assay on Corticium sasakii (1 ppm in the spray liquor), 0%; in the assay with Corticium sasakii (4 ppm in the spray liquor), 6%.
